Reference: publication PMC4838859, “Genetically encoded photocrosslinkers locate the high-affinity binding site of antidepressant drugs in the human serotonin transporter” (Nature Communications, 2016)

Columns and labels:
[1] = test system: hSERT S2-binding site mutants (W103azF, Y107azF, W182azF, Y487azF, K490azF); assay: Ultraviolet-induced photocrosslinking of [3H]labelled drug in HEK293T cells; details: 100 nM [3H]drug, 2 h 4 °C, UV 15 min; five S2 azF mutants
[2] = molecular target: T1, WT hSERT (Homo sapiens, UniProt P31645); assay: as above; details: 100 nM [3H]drug, 2 h 4 °C, UV 15 min
[3] = molecular target: hSERT Y175azF (Homo sapiens, UniProt P31645); assay: [3H]5-HT uptake assay (kinetics and uptake inhibition) in HEK293T cells; details: [3H]5-HT uptake inhibition, Y175azF (S1 mutant); mean ± s.e.m.
[4] = molecular target: T2, SERT WT (Homo sapiens, UniProt P31645); assay: [3H]5-HT saturation uptake in the presence of a fixed concentration of vortioxetine (competitive inhibition); assay type: cell-based; design: expressed in transfected cells; host or cells: HEK293T; details: control 4.21 ± 0.45
[5] = molecular target: hSERT Y487azF (Homo sapiens, UniProt P31645); assay: [3H]5-HT uptake assay (kinetics and uptake inhibition) in HEK293T cells; details: [3H]5-HT uptake inhibition, Y487azF (S2 mutant); mean ± s.e.m.
[6] = molecular target: T3, hSERT F341azF (Homo sapiens, UniProt P31645); assay: Ultraviolet-induced photocrosslinking of [3H]labelled drug in HEK293T cells
[7] = molecular target: hSERT I168azF (Homo sapiens, UniProt P31645); assay: [3H]5-HT uptake assay (kinetics and uptake inhibition) in HEK293T cells
[8] = molecular target: hSERT F335azF (Homo sapiens, UniProt P31645); assay: as above; details: [3H]5-HT uptake inhibition, F335azF (S1 mutant); mean ± s.e.m.
[9] = molecular target: T2, SERT WT; assay: as above
[10] = molecular target: T3, hSERT F341azF; assay: as above; details: [3H]5-HT uptake inhibition, F341azF (S1 mutant); mean ± s.e.m.
[11] = molecular target: T1, WT hSERT; assay: Saturation binding of [3H]vortioxetine / [3H]imipramine to HEK293T membranes expressing hSERT; design: expressed in transfected cells; host or cells: HEK293T; details: [3H]ligand saturation binding
[12] = molecular target: T4, hSERT Y95azF (Homo sapiens, UniProt P31645); details: 100 nM [3H]drug, 2 h 4 °C, UV 15 min, 50–100 kDa segment
[13] = molecular target: hSERT W103azF (Homo sapiens, UniProt P31645); assay: [3H]5-HT uptake assay (kinetics and uptake inhibition) in HEK293T cells; details: [3H]5-HT uptake inhibition, W103azF (S2 mutant); mean ± s.e.m.
[14] = molecular target: T4, hSERT Y95azF; assay: as above
[15] = molecular target: hSERT W182azF (Homo sapiens, UniProt P31645); assay: as above; details: [3H]5-HT uptake inhibition, W182azF (S2 mutant); mean ± s.e.m.
[16] = molecular target: hSERT K490azF (Homo sapiens, UniProt P31645); assay: as above; details: [3H]5-HT uptake inhibition, K490azF (S2 mutant); mean ± s.e.m.
[17] = molecular target: hSERT Y107azF (Homo sapiens, UniProt P31645); assay: as above
hSERT Y107azF, sequence (P31645 whole entry): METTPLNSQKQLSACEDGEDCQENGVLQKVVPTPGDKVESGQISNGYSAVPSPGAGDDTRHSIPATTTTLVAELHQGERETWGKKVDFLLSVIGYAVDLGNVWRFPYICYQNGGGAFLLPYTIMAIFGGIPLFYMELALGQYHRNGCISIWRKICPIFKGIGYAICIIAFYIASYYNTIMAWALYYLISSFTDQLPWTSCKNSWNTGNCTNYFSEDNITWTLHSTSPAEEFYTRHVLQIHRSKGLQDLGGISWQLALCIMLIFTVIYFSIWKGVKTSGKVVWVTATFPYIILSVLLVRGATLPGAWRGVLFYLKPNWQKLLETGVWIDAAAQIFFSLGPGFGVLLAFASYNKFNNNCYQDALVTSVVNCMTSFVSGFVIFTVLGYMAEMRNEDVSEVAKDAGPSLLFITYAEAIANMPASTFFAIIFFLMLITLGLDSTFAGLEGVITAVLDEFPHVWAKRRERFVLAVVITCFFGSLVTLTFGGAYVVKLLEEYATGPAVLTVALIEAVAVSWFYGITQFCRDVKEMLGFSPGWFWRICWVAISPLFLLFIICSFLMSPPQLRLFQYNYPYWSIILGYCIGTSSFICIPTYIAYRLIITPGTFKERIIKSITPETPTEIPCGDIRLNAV

T1 sequence (P31645 whole entry): as above
T2 sequence (P31645 whole entry): as above
T3 sequence (P31645 whole entry): as above
T4 sequence (P31645 whole entry): as above
hSERT I168azF, sequence (P31645 whole entry): as above
hSERT W182azF, sequence (P31645 whole entry): as above
hSERT W103azF, sequence (P31645 whole entry): as above

With `CN(C)CCCN1c2ccccc2CCc2ccccc21` [imipramine] the “ultraviolet-induced crosslinking (radioactivity signal vs non-UV control)” value [1] was “did not crosslink”.
For `Cc1ccc(Sc2ccccc2N2CCNCC2)c(C)c1` [vortioxetine], the “ultraviolet-induced crosslinking (radioactivity signal)” value [2] was “no radioactivity signal was observed”, the Ki [3] was 53 ± 6 nM and the “Vmax of 5-HT uptake in presence of inhibitor” value ([4]; 0.75 µM vortioxetine) was 4.19 ± 0.50 pmol min-1 per well. The “Vmax of 5-HT uptake in presence of inhibitor” value ([4]; 1 µM vortioxetine) was 4.03 ± 0.36 pmol min-1 per well, the Ki [5] was 96 ± 16 nM and the “ultraviolet-induced crosslinking (radioactivity signal vs non-UV control)” value ([6]; 100 nM [3H]drug, 2 h 4 °C, UV 15 min, 50–100 kDa segment) was “significant ultraviolet-dependent radioactivity signal was detected”. The “displacement of crosslinking radioactivity signal by unlabelled inhibitor” value ([6]; 100 μM unlabelled inhibitor added before ultraviolet exposure) was “full displacement”, the “increase in potency (more sensitive) relative to WT hSERT” value ([7]; I168azF vs WT, Ki in [3H]5-HT uptake inhibition) was 10 fold and the Ki ([7]; [3H]5-HT uptake inhibition, I168azF (S1 mutant), mean ± s.e.m.) was 19 ± 3 nM. The Ki [8] was 54 ± 9 nM, the Ki [9] was 202 ± 19 nM and the Ki [10] was 43 ± 5 nM. The Kd ([11]; WT hSERT C-terminally fused to 1D4 tag, mean±s.e.m.) was 6.3 ± 0.7 nM, the Kd ([11]; WT hSERT without 1D4 tag) was 6.1 ± 1.1 nM and the “ultraviolet-induced crosslinking (radioactivity signal vs non-UV control)” value [12] was “no signal was detected”. The Ki [13] was 149 ± 12 nM, the “decrease in potency relative to WT hSERT” value ([14]; Y95azF vs WT, Ki in [3H]5-HT uptake inhibition) was 6 fold and the Ki ([14]; [3H]5-HT uptake inhibition, Y95azF (S1 mutant), mean ± s.e.m.) was 1240 ± 125 nM. The “ultraviolet-induced crosslinking (radioactivity signal vs non-UV control)” value [1] was “indistinguishable”, the Ki [15] was 74 ± 9 nM and the Ki [16] was 56 ± 20 nM. For the same compound, the “increase in potency (more sensitive) relative to WT hSERT” value ([17]; Y107azF vs WT, Ki in [3H]5-HT uptake inhibition) was 5 fold and the Ki ([17]; [3H]5-HT uptake inhibition, Y107azF (S2 mutant), mean ± s.e.m.) was 38 ± 9 nM.
